For the data set the following is noted: a range is the spread between reports.

Take `CC(=O)OCc1ccccc1`: the melting point was -51.3 to -51 °C.
Consider `O=Cc1ccccc1Br`, for which the melting point lay in the range of 20 to 22 °C.
Next, `CCCOCC`: -128 to -127 °C; `CC(C)CCCl`: -104 °C; `O=C(O)c1cccc(F)c1`: 123 to 124 °C.
`ClC(c1ccccc1)c1ccccc1` gave a melting point of 16 to 19 °C.
For `ClC=C(Cl)Cl`, the melting point is -85 to -84.7 °C.
For the molecule `CN1C(=O)OC(C)(C)C1=O`, the melting point lay within 46 to 47 °C.
`OC1CCCC1` yielded a melting point of -20 to -16.2 °C.
In turn, `O=C(O)c1cc(I)cc(I)c1O` gave a melting point of 231 to 236 °C.
Molecule `NC(=S)Nc1ccccc1` registered a melting point of 149 to 154 °C.
For the molecule `COc1cc(OC)cc(OC)c1`, the melting point was in the range of 52 to 54.5 °C.
The same measure for `O=c1ccc2ccc(O)cc2o1`: 230 °C; for `C1CC[C@H]2CCCC[C@H]2C1`: -43 to -42.9 °C.
Turning to `Clc1ccc(C(c2ccccc2Cl)C(Cl)(Cl)Cl)cc1` (stereo not drawn), the melting point lay in the range of 74.2 to 75 °C.
The same measure for `Oc1ccc(Cl)cc1`: 41 to 44 °C; for `CC(C)CC(=O)CC(C)C`: -42 to -41.5 °C; for `CCC1(C)CCCC1`: -144 °C.
`CC1CCCCC1` displayed a melting point of -127 to -126 °C.
As to `CN(C)c1ccc(N(C)C)cc1`, the melting point was 50 to 51 °C.
Next, `CCCCC(O)CCC` (stereo not drawn): -41 to -40.7 °C.
The same measure for `C1CSCCS1`: 111 to 112 °C.
The same measure for `O=C(O)C(Cl)=C(Cl)Cl`: 73 to 76 °C; for `CC(C)CCCC(C)C1CCC2C3CC=C4CC(O)CCC4(C)C3CCC12C` (stereo not drawn): 148 to 149 °C.
`C=CCC1(C(C)CCC)C(=O)NC(=O)NC1=O` (stereo not drawn): the melting point was in the range of 95 to 100 °C.
Regarding `CCOC(=O)Cc1ccccc1`, the melting point is -29.4 to -29 °C.
Regarding `CCCCCCCCCCCCBr`, the melting point was -10 to -9.5 °C.
Turning to `CC(C)C(=O)c1ccccc1`, the melting point is -1.3 to 1 °C.
In turn, `c1ccncc1` gave a melting point of -42 to -41.6 °C.
`O=C(CC(=O)C(F)(F)F)c1cccs1` yielded a melting point of 42 to 43 °C.
The same measure for `Oc1c(Br)cc(Br)c2cccnc12`: 196 to 201 °C.
Next, `Nc1cccc(C(F)(F)F)c1`: 5.5 to 6 °C; `CC(C)(O)C(=O)O`: 79 to 82.5 °C; `ClCc1ccccc1`: -45 to -43 °C.
As for `O=C(O)CCCc1c[nH]c2ccccc12`, the melting point was in the range of 123 to 124 °C.
Take `O=C(c1ccccc1)C1CCCCC1`: the melting point lay in the range of 55 to 56 °C.
Next, `O=[N+]([O-])c1cccc(Cl)c1Cl`: 61.5 to 62 °C.
For the molecule `CCCCOC(=O)CCCCCCCCC(=O)OCCCC`, the melting point is -11 to -10 °C.
`O=C(O)CCCCBr` showed a melting point of 39 to 40 °C.
Next, `Clc1cncc(Cl)n1`: 54 to 56.5 °C; `OCc1cc(Cl)cc(Cl)c1`: 78 to 80.5 °C; `CCCCCCCCP(=O)(CCCCCCCC)CCCCCCCC`: 52 to 55 °C.
Molecule `CC(C)(Br)C(=O)O` returned a melting point of 44 to 48.5 °C.
`C=Cc1ccc([N+](=O)[O-])cc1` yielded a melting point of 27 to 29 °C.
`NC(=O)NCc1ccccc1`: the melting point fell in the range of 148 to 149 °C.
The same measure for `C1CCOC1`: -108 °C.
The same measure for `O=C1CCC1`: -52 to -50.9 °C; for `CCN(CC)c1ccc(C=O)cc1`: 40 to 41 °C.
`CC(C)CCCCC(C)C` registered a melting point of -55 to -54 °C.
Next, `COc1ccc(C)cc1OC`: 24 to 27 °C.
As for `C=CBr`, the melting point is -139 to -138 °C.
In turn, `CCCCCCCC/C=C\CCCCCCCCCCCC(N)=O` yielded a melting point of 77.5 to 79 °C.
As to `CCC(CC)(CC)CC`, the melting point was -33.1 to -33 °C.
In turn, `Cc1ccc(C)c(C(=O)O)c1` displayed a melting point of 132 to 134 °C.
`O=C(c1ccc(Cl)cc1)c1ccccc1Cl` displayed a melting point of 65 to 67 °C.
The molecule `Nc1cc(C(=O)O)ccc1Cl` had a melting point of 214 to 216 °C.
Next, `NC(=O)c1ccc(-c2ccccc2)cc1`: 223 to 228 °C.
For the molecule `Cc1ccc(N)cc1Br`, the melting point fell in the range of 26 to 27 °C.
`CC1CNCC(C)O1` (stereo not drawn): the melting point was -88 to -85 °C.
In the case of `CC(C)(C(=O)O)c1ccccc1`, the melting point is 79 to 81 °C.
Molecule `Oc1ccc2ccccc2c1` registered a melting point of 122 to 123 °C.
Molecule `O=C(O)c1ccc(CO)cc1` registered a melting point of 181 to 182 °C.
Regarding `Nc1ccc(S(=O)(=O)Nc2nccs2)cc1`, the melting point lay within 200 to 202 °C.
Next, `SCc1ccc(Cl)cc1`: 19 to 20 °C; `CCc1cc(C)ccc1C`: -54 to -53.7 °C.
In turn, `CC(C)C(C(C)C)C(C)C` registered a melting point of -82 to -81.7 °C.
Regarding `COc1cc(O)ccc1O`, the melting point is 89 to 90 °C.
Next, `Nc1c(Cl)cc([N+](=O)[O-])cc1[N+](=O)[O-]`: 154 to 157 °C; `O=S(=O)(Cl)c1ccc(Cl)cc1`: 51 to 52 °C.
Consider `CCCSCCC`, for which the melting point is -103 to -102 °C.
`CCN(C(C)C)C(C)C` returned a melting point of -50 to -46 °C.
`CCC(=O)CC` returned a melting point of -40 to -39 °C.
For `COc1cccc([N+](=O)[O-])c1`, the melting point lay in the range of 38 to 38.5 °C.
In the case of `COc1c(Cl)cc(Cl)cc1Cl`, the melting point lay in the range of 61 to 61.5 °C.
The same measure for `COc1ccc(C(=O)OC(=O)c2ccc(OC)cc2)cc1`: 94.5 to 97 °C; for `C=CC(=O)OCCCC`: -64.6 to -64 °C; for `OC1c2ccccc2-c2ccccc21`: 154 to 156 °C.
As for `CCC(=O)c1cc(F)c(O)c(F)c1`, the melting point lay in the range of 127 to 130 °C.
`COC(=O)CCCCC(=O)OC` had a melting point of 8 to 10.3 °C.
`CC(C)CC(C)C`: the melting point was -123 to -119 °C.
As to `CN1CCC(O)CC1`, the melting point was 28 to 29 °C.
In turn, `Clc1cc(Cl)nc(Cl)n1` registered a melting point of 22.5 to 23 °C.
`c1ccc2c(c1)Cc1cc3ccccc3cc1-2` yielded a melting point of 208 to 212 °C.
Regarding `CCCCCCCCCCCCCCCCCCC`, the melting point was 32 to 33 °C.
Take `Fc1ccc(Br)cc1`: the melting point was -17.4 to -16 °C.
As for `CNC(=O)Oc1ccccc1OC(C)C`, the melting point is 90 to 91.5 °C.
Next, `CC(C=CC1=C(C)CCCC1(C)C)=CC=CC(C)=CCO`: 63 to 63.5 °C; `CN(C)C(N)=O`: 180 to 184 °C; `C1CNCCN1`: 106 to 110 °C.
Next, `CC(Cl)(Cl)Cl`: -33 to -30 °C; `CC(=O)C(C)C`: -93.1 to -92 °C.
`CN(C)c1ccc(C(=O)c2ccc(N(C)C)cc2)cc1` came in with a melting point of 175 to 179 °C.
Next, `OC(c1ccccc1)c1ccccc1`: 66 to 69 °C; `C=C(CC(=O)OC)C(=O)OC`: 36 to 38 °C.
Regarding `CC1CC=CCC1` (stereo not drawn), the melting point was -116 to -115 °C.
With `OCCNCCO`, the melting point lay within 28 to 29 °C.
Next, `CC(=O)N1CCOCC1`: 10 to 14.5 °C.
Consider `Brc1cc(Br)c(Br)cc1Br`, for which the melting point was 178 to 182 °C.
On to `O=[N+]([O-])c1ccc2c3c(cccc13)CC2`, for which the melting point was in the range of 103 to 104 °C.
The same measure for `O=C1c2ccccc2C(=O)c2cc(Cl)ccc21`: 209 to 211 °C; for `Cc1ccc(C(=O)O)cc1C`: 165 to 166 °C; for `CC#CCCC`: -90 to -89.6 °C.
The same measure for `COc1cc(C(=O)O)cc(O)c1OC`: 195 to 196 °C; for `Nc1cc(Cl)ccc1O`: 140 to 143 °C; for `BrCCBr`: 9.9 to 10 °C.
Molecule `CC1(O)CCCC1` had a melting point of 36 to 37 °C.
For the molecule `Cc1cccc(Cl)c1`, the melting point was -48 to -47.8 °C.
The molecule `CC(=O)Nc1cccc([N+](=O)[O-])c1` registered a melting point of 152 to 155 °C.
`CCC(C)(C)C(C)C`: the melting point is -101 °C.
`Cc1ccc(S(=O)(=O)F)cc1`: the melting point was in the range of 41 to 41.5 °C.
With `CC1(C(=O)O)CCCCC1`, the melting point was in the range of 37.5 to 38 °C.
In turn, `CC(=O)NN` had a melting point of 64 to 67 °C.
For `CCc1nc(C)c[nH]1`, the melting point was in the range of 47 to 50.5 °C.
`Cc1ccc(C)c(C)c1C`: the melting point was -6.2 to -6 °C.
Take `O=C(C(=O)c1ccccc1)c1ccccc1`: the melting point is 94.5 to 95 °C.
The molecule `Ic1ccc(-c2ccccc2)cc1` showed a melting point of 112 to 114 °C.
In turn, `CN1C2CCC1CC(=O)C2` came in with a melting point of 42 to 43 °C.
Next, `Nc1ccc(O)c([N+](=O)[O-])c1`: 126 to 129 °C; `CCC(C)(O)CC`: -24 to -23.6 °C; `C=CCCl`: -135 to -134 °C.
`COc1ccc(N=C=S)cc1` displayed a melting point of 18 to 19 °C.
The same measure for `c1ccc2sccc2c1`: 30 to 32 °C; for `CC(C)c1ccc(O)cc1`: 60 to 62.3 °C.
As to `CCc1ccc2c(c1)C(=O)c1ccccc1C2=O`, the melting point fell in the range of 109 to 110 °C.
In the case of `O=[N+]([O-])c1c(O)cccc1O`, the melting point lay within 82 to 83 °C.
In the case of `O=C(CBr)c1ccc(Br)cc1`, the melting point lay in the range of 109 to 111 °C.
`CC(=O)OC(C)C` returned a melting point of -73.4 to -73 °C.
Molecule `O=C(O)c1cc([N+](=O)[O-])ccc1Cl` came in with a melting point of 166 to 167 °C.
`COC(=O)c1cc(Cl)ccc1N` gave a melting point of 67 to 69 °C.
The same measure for `CCCCCCCCCCN`: 13 to 17 °C; for `Cc1ccncc1`: 3 to 3.66 °C.
Next, `CC1=NNC(=O)C1`: 221 to 222 °C.
Next, `Nc1ccc(Cl)cc1`: 70 to 72.5 °C.
Regarding `CCCCCCCCCCCCCCCCCCCCCCCCCCC`, the melting point is 59 to 59.5 °C.
The same measure for `CSC(C)C`: -102 °C.
`CCC1CC1` returned a melting point of -149 °C.
In the case of `O=C1Nc2ccccc2C1=O`, the melting point was 200 to 203 °C.
For `O=C(O)CCSCCC(=O)O`, the melting point lay within 129 to 131 °C.
The same measure for `CCI`: -111 to -108 °C; for `Nc1ccc(F)c([N+](=O)[O-])c1`: 96 to 97.5 °C; for `COc1cc(C#N)cc(OC)c1OC`: 93 to 94 °C.
In turn, `O[Si](c1ccccc1)(c1ccccc1)c1ccccc1` returned a melting point of 152 to 155 °C.
`CC[Si](Cl)(Cl)CC`: the melting point is -97 to -96.5 °C.

The melting point is the temperature, or range, at which the solid turns liquid.

The values above are taken from a melting point compilation (Tetko et al.).
